# Experiments:
# [1] = test system: Lactobacillus casei YIT 9029; experiment: Culture of YIT 9029 in skimmed milk culture medium with L-cystine or L-cysteine; format: cell-based; conditions: YIT 9029, skimmed milk culture medium, 0.05 (w/v) %, 37° C., 12 hours, FIG. 1
# Description: (§1) Bifidobacterium breve YIT 12272 (hereinafter, referred to as BbY), Bifidobacterium bifidum YIT 10347 (hereinafter, referred to as BF-1), Lactobacillus casei YIT 9029 (hereinafter, referred to as YIT 9029), and Lactobacillus acidophilus YIT 0198 (hereinafter, referred to as YIT 0198) were used.
# A skimmed milk powder (ABC, manufactured by MEGMILK SNOW BRAND Co., Ltd.) was dissolved in RO water at 12% (w/v), the solution was dispensed in 10 mL aliquots in a rimmed medium-sized test tube while replacing the headspace with nitrogen gas and sealed with a butyl rubber stopper. Subsequently, the solution was sterilized by heat in an autoclave (SX-500, manufactured by Tomy Seiko Co., Ltd.) at 115° C. for 30 minutes to provide a skimmed milk culture medium (additive-free culture medium). […]
# The pH of a culture medium or a bacterial solution was measured using a desk-top pH meter (F52, manufactured by HORIBA, Ltd.). […]
# Regardless of the bacterial strain, a bacterial solution was appropriately diluted with a 0.85% (w/v) sodium chloride aqueous solution (physiological saline solution). […] The grown colonies were counted as the viable cell count. […] Colonies were counted using a colony counter ProtoCOL (manufactured by Synoptics Ltd.).
# [2] = test system: Bifidobacterium breve YIT 12272 (BbY); experiment: Culture of BbY in skimmed milk culture medium with L-cystine or L-cysteine (simultaneous / individual heating); format: cell-based; conditions: for growth rate of the viable cell count, simultaneous versus individual heating (growth curve): final concentration 0.03% (w/v), FIG. 2; for viable cell count and acidity versus culture medium not containing L-cystine and L-cysteine: simultaneous heating culture medium (skimmed milk or whey), 0.001 to 0.1% (w/v), FIGS. 3 and 4; for concentration at which the viable cell count was maximum: skimmed milk simultaneous heating culture medium, culture time 9 hours
# Description: as §1
# A skimmed milk powder (ABC, manufactured by MEGMILK SNOW BRAND Co., Ltd.) was dissolved in RO water at 12% (w/v), the solution was dispensed in 10 mL aliquots in a rimmed medium-sized test tube while replacing the headspace with nitrogen gas and sealed with a butyl rubber stopper. […] In addition, a skimmed milk culture medium (simultaneous heating culture medium) was prepared in anaerobic conditions by adding an L-cystine (manufactured by Kyowa Hakko Bio Co., Ltd.) aqueous suspension or an L-cysteine hydrochloride (manufactured by Nichiri Kagaku Co., Ltd.) aqueous solution to a skimmed milk culture medium at a final concentration of 0.05 (w/v) % and performing heat sterilization after the addition of the suspension or the solution, and a skimmed milk culture medium (individual heating culture medium) was prepared in anaerobic conditions by adding the suspension or the solution to a skimmed milk culture medium at a final concentration of 0.05 (w/v) % after heat sterilization and immediately before inoculation. Here, the L-cystine aqueous suspension and the L-cysteine hydrochloride aqueous solution were prepared as a 5% (w/v) aqueous suspension and a 5% (w/v) aqueous solution, respectively, and were added to each culture medium at an amount of 1% (v/v). In order to unify the changes in the concentration and the changes in the redox potential of samples due to the addition of the solution, 1% (v/v) of sterilized water was added to the simultaneous heating culture medium immediately before inoculation, to the individual heating culture medium before heating, and to the additive-free culture medium before heating and immediately before inoculation, i.e., twice.
# When bacteria were inoculated, inoculation was performed while replacing the headspace of the container with nitrogen gas, and the nitrogen gas was sealed with a butyl rubber stopper, followed by culture. The culture was performed in a thermostat water bath set to 37° C. for 12 hours.
# The pH of a culture medium or a bacterial solution was measured using a desk-top pH meter (F52, manufactured by HORIBA, Ltd.).
# The amount of a 0.1 N sodium hydroxide aqueous solution for 9.0 g of a bacterial solution required to reach a pH of 8.5 was defined as acidity. The measurement was performed using an automatic titrator (manufactured by HIRANUMA Co., Ltd.).
# Regardless of the bacterial strain, a bacterial solution was appropriately diluted with a 0.85% (w/v) sodium chloride aqueous solution (physiological saline solution). The diluted bacterial solution was inoculated with a spiral plater EDDY JET (manufactured by IUL Instruments GmbH) on a plate culture medium of TOS propionate agar medium (manufactured by Yakult Pharmaceutical Industry Co., Ltd.) in the case of bacteria of the genus Bifidobacterium and a plate culture medium of BCP Added Plate Count medium (manufactured by EIKEN CHEMICAL CO., LTD.) in the case of bacteria of the genus Lactobacillus, followed by culture at 37° C. for 48 to 72 hours. The grown colonies were counted as the viable cell count. The bacteria of the genus Lactobacillus were cultured in aerobic conditions, and the bacteria of the genus Bifidobacterium were cultured in anaerobic conditions (Anaero Pack, manufactured by MITSUBISHI GAS CHEMICAL COMPANY, INC.). Colonies were counted using a colony counter ProtoCOL (manufactured by Synoptics Ltd.).
# As in Example 1, each simultaneous heating culture medium of milk and L-cystine or L-cysteine was prepared. The addition concentration of L-cystine or L-cysteine was adjusted to 0.001, 0.003, 0.005, 0.01, 0.03, 0.05, or 0.1% (w/v) as the final concentration. […]
# [3] = BbY, milk, L-cysteine 0.03% (w/v), filter sterilization (0.22 μm, no heating), culture time 9 h
# [4] = BbY, milk, L-cysteine 0.03% (w/v), filter sterilization (0.22 μm, no heating), culture time 12 h
# [5] = BbY, milk, L-cysteine 0.03% (w/v), individual heating, culture time 9 h
# [6] = BbY, milk, L-cysteine 0.03% (w/v), individual heating, culture time 12 h
# [7] = BbY, milk, L-cysteine, simultaneous heating, culture time 9 h
# [8] = BbY, milk, L-cysteine, simultaneous heating, culture time 12 h
# [9] = BbY, skimmed milk, 0.05 (w/v) %, cultured 12 hours
# [10] = BbY, skimmed milk, L-cystine 0.03% (w/v), 115° C. for 30 min, after heat sterilization (individual heating), 12 hours
# [11] = BbY, skimmed milk, L-cystine 0.03% (w/v), 115° C. for 30 min, before heat sterilization (simultaneous heating), 12 hours
# [12] = BbY, skimmed milk, L-cystine 0.03% (w/v), 121° C. for 30 min, after heat sterilization (individual heating), 12 hours
# [13] = BbY, skimmed milk, L-cystine 0.03% (w/v), 121° C. for 30 min, before heat sterilization (simultaneous heating), 12 hours
structure (smiles),measurement,setting,value
"Cl.N[C@@H](CS)C(=O)O [L-cysteine, L-cysteine hydrochloride]",growth promotion by addition,[1],not observed
same,"growth rate of the viable cell count, simultaneous versus individual heating (growth curve)",[2]; BbY,higher in the case of the simultaneous heating
same,Acidity,[2]; [3],3.62 ml/9 g
same,Viable cell count,[2]; [3],8.92 × 10^8 CFU/ml
same,pH,[2]; [3],5.40
same,Acidity,[2]; [4],5.12 ml/9 g
same,Viable cell count,[2]; [4],1.64 × 10^9 CFU/ml
same,pH,[2]; [4],4.94
same,Acidity,[2]; [5],3.59 ml/9 g
same,Viable cell count,[2]; [5],7.77 × 10^8 CFU/ml
same,pH,[2]; [5],5.42
same,Acidity,[2]; [6],5.04 ml/9 g
same,Viable cell count,[2]; [6],1.78 × 10^9 CFU/ml
same,pH,[2]; [6],5.02
same,Acidity,[2]; [7],4.47 ml/9 g
same,Viable cell count,[2]; [7],1.34 × 10^9 CFU/ml
same,pH,[2]; [7],5.17
same,Acidity,[2]; [8],8.05 ml/9 g
same,Viable cell count,[2]; [8],3.46 × 10^9 CFU/ml
same,pH,[2]; [8],4.64
same,viable cell count and acidity versus culture medium not containing L-cystine and L-cysteine,[2]; BbY,increased
same,concentration at which the viable cell count was maximum,[2]; BbY,0.03 % (w/v)
same,promotion of growth by simultaneous heating with milk,[2]; FIGS. 1 and 2,promotion of growth was observed
same,"difference in the culture state of BbY, individual heating versus filter sterilization",[2]; L-cysteine added to milk at 0.03% (w/v),no difference
N[C@@H](CSSC[C@H](N)C(=O)O)C(=O)O [L-cystine],growth promotion by addition,[1],not observed
same,"growth rate of the viable cell count, simultaneous versus individual heating (growth curve)",[2]; BbY,higher in the case of the simultaneous heating
same,viable cell count and acidity versus culture medium not containing L-cystine and L-cysteine,[2]; BbY,increased
same,concentration at which the viable cell count was maximum,[2]; BbY,0.01 % (w/v)
same,acidity higher with simultaneous heating than individual heating,[2]; [9],1.3 mL/9 g
same,viable cell count increase compared to absence of L-cystine,[2]; [9],5.6 times
same,"viable cell count, simultaneous heating versus individual heating",[2]; [9],the same
same,Acidity,[2]; [10],3.82 mL/9 g
same,Viable cell count,[2]; [10],1.29 × 10^9 CFU/mL
same,pH,[2]; [10],5.34
same,Acidity,[2]; [11],5.40 mL/9 g
same,Viable cell count,[2]; [11],1.89 × 10^9 CFU/mL
same,pH,[2]; [11],5.00
same,Acidity,[2]; [12],4.00 mL/9 g
same,Viable cell count,[2]; [12],1.12 × 10^9 CFU/mL
same,pH,[2]; [12],5.26
same,Acidity,[2]; [13],5.42 mL/9 g
same,Viable cell count,[2]; [13],1.86 × 10^9 CFU/mL
same,pH,[2]; [13],4.96

# Reference: US12534699B2, “Method for promoting growth of bacteria of genus Bifidobacterium” (KABUSHIKI KAISHA YAKULT HONSHA, priority 2019, dated 2026)
